Reference: patent US12208143B2, “Compositions and methods for transport across the blood brain barrier” (OPHIDION INC., priority 2011, dated 2025)
“Also recorded” adds a separate entry of the source. Like-named read-outs stand apart in the source and are kept apart here.

How the values were obtained:
[1] = test system: primary cortical neurons; assay type: cell-based, mouse
[2] = test system: lynx1 mRNA; assay: lynx1 knock-down by lynx1 siRNA species in cultured cortical neurons (TaqMan qPCR); assay type: cell-based, mouse; conditions: siRNA transfected by Accell method, lynx1 mRNA relative to mock, FIG. 6
[3] = test system: lynx1 mRNA; assay: siRNA uptake of peptide-lynx1 siRNA complexes into primary neuronal cultures (lynx1 mRNA knock-down, qPCR); assay type: cell-based; conditions: 25 uM peptide + 2.5 uM lynx1 siRNA (siRNA1), poly-D arginine linker, 24 hours, primary cortical mouse neurons, FIG. 8
[4] = test system: lynx1 mRNA; assay: Knock-down of lynx1 mRNA after delivery of anti-lynx1 siRNA into cultured cortical neurons via peptide variant-siRNA complexes (qPCR); assay type: cell-based, mouse

EVMEQSAGIMYRKS [lynx2-loop2] was tested, and the “binding of biotinylated peptide to neurons in culture” value [1] was “did not reliably bind to neurons”.

In the case of “GCACUGAUUUGAUAGAAUU (siRNA; purchased Accell siRNA, chemistry not given here) [siRNA1, SMART pool siRNA A-062811-13 LYNX1, Thermo Scientific/Dharmacon]”, the “reduction of lynx1 expression” value [2] is reported as “more than 90%”, the “reduction in lynx1 mRNA compared to no siRNA (Mock)” value [3] is reported as “no significant reduction in lynx1 mRNA levels” and the “knock-down of lynx1 mRNA relative to the lynx1-loop2 peptide-siRNA complex” value ([4]; 5 μM peptide + 0.5 μM anti-lynx1 siRNA, 24 hours, cultured cortical neurons, lynx1-loop2 set to 100%, siRNA alone set at 0%, FIG. 10) is reported as “did not result in knock-down of lynx1 mRNA”.

With MTTRTYATPYRMKVRKS [Mutant 2] the “knock-down of lynx1 mRNA relative to the lynx1-loop2 peptide-siRNA complex” value [4] was “significantly reduces lynx1-loop2 peptide ability to transport siRNA into neurons; also recorded: not as effective for decreasing lynx1 expression”.

MTTRTYFTPYAMADRKS [Mutant 3] was tested, and the “knock-down of lynx1 mRNA relative to the lynx1-loop2 peptide-siRNA complex” value [4] was “abolish lynx1-loop2 peptide function; also recorded: not as effective for decreasing lynx1 expression”.

For MTWCDYFTPSRGKVRKS [Mutant 1], the “decrease of lynx1 mRNA compared to RVG29 and RVG19 complexes” value [4] was “more effective at decreasing levels of lynx1 mRNA compared to RVG29 and RVG19; also recorded: decrease lynx1 mRNA in cultured cortical neurons more effectively than both RVG29 and RVG19” and the “knock-down of lynx1 mRNA relative to the lynx1-loop2 peptide-siRNA complex” value [4] was “as capable of translocating siRNA into neurons as is lynx1-loop2; also recorded: enhanced the knock-down compared to SEQ ID NO:2 peptide; also recorded: capable of decreasing lynx1 expression in cultured cortical neurons as well as a peptide having the sequence of SEQ ID NO:2”.
